Patent US11572402B2, “Method for promoting diversification of antibody variable region” (Chiome Bioscience Inc., priority 2017, dated 2023)

System: BMAA4-2 cell line
Assay: Sequence change analysis of antibody variable regions according to NGS (NUS, SBL)
Format: cell-based, chicken
Details: BMAA4-2 cells, versus negative control sample
Protocol: A frozen stock of the BMAA4-2 cell line (3.0×10^6 cells) was awaken with 10 mL of CS(−) medium, using a 25 cm^2 Flask, and the cells were then cultured in a CO2 incubator (39.5° C., 5% CO2). On the following day, 2 mL each of a CS(−) medium, to which each drug had been added, was added into each well of a 12-well dish (Nunc, 150628), and the cells were then seeded thereon to a cell density of 6.0×10^4 cells/mL (wherein the cell concentration and the survival rate were measured using CASY cell counter). After individual samples had been cultured for 2 days, the samples were subcultured under the same conditions to result in a cell density of 1.0×10^4 cells/mL. After completion of the culture for 3 days, individual samples were subcultured in a 25 cm^2 Flask to result in a cell density of 6.0×10^4 cells/mL with respect to 10 mL of the medium under the same conditions. After completion of the culture for 2 days (Day 7 of the culture), individual samples (in each amount of 2.0×10^6 cells) were recovered in a 1.5-mL tube, and thereafter, a supernatant was removed by centrifugation at 1,000×g for 5 min. The residue was re-suspended in 1 mL of D-PBS(−) (Nacalai Tesque, 14249-24), and a supernatant was then removed by centrifugation at 1,000×g for 5 min. The residue was preserved at −80° C. Moreover, individual samples from the remaining cells were subcultured in a 12-well dish to result in a cell density of 6.0×10^4 cells/mL with respect to 2 mL of the medium under the same conditions. After completion of the culture for 2 days, individual samples were subcultured under the same conditions to result in a cell density of 1.0×10^4 cells/mL. After completion of the culture for 3 days, individual samples were subcultured in a 25 cm^2 Flask to result in a cell density of 6.0×10^4 cells/mL with respect to 10 mL of the medium under the same conditions. After completion of the culture for 2 days (Day 14 of the culture), individual samples (in each amount of 2.0×10^6 cells) were recovered in a 1.5-mL tube, and thereafter, a supernatant was removed by centrifugation at 1,000×g for 5 min. The residue was re-suspended in 1 mL of D-PBS(−), and a supernatant was then removed by centrifugation at 1,000×g for 5 min. The residue was preserved at −80° C.
A frozen stock of the BMAA4-2 cell line (3.0×10^6 cells) was awaken with 10 mL of CS(−) medium, using a 25 cm^2 Flask, and the cells were then cultured in a CO2 incubator (39.5° C., 5% CO2). On the following day, 1 mL each of a CS(−) medium, to which each drug had been added, was added into each well of a 24-well dish, and the cells were then seeded thereon to a cell density of 3.0×10^5 cells/mL (wherein the cell concentration and the survival rate were measured using CASY cell counter). […]

Structure (SMILES): Cc1nc(NC(=O)N2CCC[C@H]2C(N)=O)sc1-c1csc(C(C)(C)C)n1 [A66]
- NUS (number of unique sequences), antibody heavy chain variable region amino acid sequences (heavy chain): higher values than the negative control sample
- SBL (sum of branch length), antibody heavy chain variable region amino acid sequences (heavy chain): higher values than the negative control sample
- NUS (number of unique sequences), antibody light chain variable region amino acid sequences (light chain): higher values than the negative control sample
- SBL (sum of branch length), antibody light chain variable region amino acid sequences (light chain): higher values than the negative control sample
